Test results: article PMC10820528, “New Rare Triterpene Glycosides from Pacific Sun Star, Solaster pacificus, and Their Anticancer Activity” (Marine Drugs, 2023)
Where two headings read alike, the source gives them in different places.

How the values were obtained:
[1] = tested on: breast cancer MDA-MB-231 cells; test: cells; type: cell-based; details: for IC50: read-out: IC50, MDA-MB-231
Protocol: (§1) We calculated the inhibiting concentration that cause death of 50% of cells (IC50) and the selectivity index (SI) of the compounds tested (Table 4).
(§2) The human embryonic kidney HEK 293 cells (ATCC® CRL-1573™), breast cancer MDA-MB-231 cells (ATCC® HTB-26™), and colorectal carcinoma HCT 116 cells (ATCC® CCL-247™) were purchased from the American Type Culture Collection (Manassas, VA, USA). The HEK 293 and MDA-MB-231 cells were cultured in DMEM; the HCT 116 cells were cultured in the McCoy’s 5A medium at 37 °C in a humidified atmosphere containing 5% CO2. The culture media were supplemented with 10% heat-inactivated FBS and a 1% penicillin/streptomycin solution. The number of passages was carefully controlled, and contamination by Mycoplasma was monitored on a regular basis.
(§3) Compounds 1–3, and 6–8 were dissolved in sterile dimethyl sulfoxide (DMSO), to prepare stock concentrations of 20 mM. Cells were treated with serially diluted 1–3, 6–8 (0.3–100 µM) (with the culture medium used as diluent) (the final concentration of DMSO was less than 0.5%). The vehicle control was the cells treated with an equivalent volume of DMSO (the final concentration was less than 0.5%) for all of the presented experiments.
(§4) HEK 293 (1.0 × 10^4/200 µL), HCT 116 (1.0 × 10^4/200 µL), and MDA-MB-231 (0.8 × 10^4/200 µL) cells were seeded in a 96-well plate and incubated for 24 h at 37 °C in a CO2 incubator. […] The cells were subsequently incubated with 15 µL of the MTS reagent for 3 h. The absorbance of each well was measured at 490/630 nm on a Power Wave XS microplate reader (BioTek, Winooski, VT, USA).
(§5) The IC50 concentration was calculated using the AAT-Bioquest® online calculator [24]. The selectivity index (SI) was calculated as described previously, using the following formula: SI = IC50 of the compounds for normal cells (HEK 293) divided by IC50 of the same compounds for the human colorectal adenocarcinoma and breast cancer (HCT 116 and MDA-MB-231) cell lines.

[2] = tested on: human embryonic kidney HEK 293 cells; test: cells; type: cell-based; details: for IC50: read-out: IC50, HEK 293
Protocol: as §1, §2, §3, §4, §5

[3] = tested on: colorectal carcinoma HCT 116 cells; test: cells; type: cell-based; details: for IC50: Homo sapiens, read-out: IC50, HCT 116
Protocol: We determined the cytotoxicity of compounds 1–3 and 6–8 against human embryonic kidney HEK 293, colorectal carcinoma HCT 116, and breast cancer MDA-MB-231 cells by the MTS assay, after 24 h of treatment with the compounds. We calculated the inhibiting concentration that cause death of 50% of cells (IC50) and the selectivity index (SI) of the compounds tested (Table 4).
as §2, §3, §4, §5

[4] = tested on: RPMI-7951 cells; details: non-toxic concentration; cited from earlier work
[5] = tested on: HT-29 cells; details: non-toxic concentration; cited from earlier work
[6] = tested on: MDA-MB-231 cells; details: non-toxic concentration; cited from earlier work
[7] = tested on: JB6 Cl41 cells; parameters: method as in PMID 35323516; details: induced by chemical carcinogens (EGF and TPA) or ionizing radiation (X-rays and UVB), non-toxic concentrations; cited from earlier work
[8] = tested on: SK-MEL-2 cancer cells; parameters: method as in PMID 35323516; details: non-toxic concentrations; cited from earlier work
[9] = MTS assay, cisplatin, 48 h of cell incubation, mean ± SD
[10] = HCT-116, MTS assay, 24 h of cell incubation, mean ± SD
[11] = Homo sapiens, MDA-MB-231, MTS assay, 24 h of cell incubation, mean ± SD
[12] = Homo sapiens, HEK293, MTS assay, 24 h of cell incubation, mean ± SD

N.N.[Cl][Pt][Cl] [Cisplatin, cisplatin, reference compound]
IC50 [1, 9]: 34.5 ± 0.5 µM | IC50 [2, 9]: 64.6 ± 1.5 µM

C=C(C)C1C2CC3(C)C4=CCC5C(C)(C)C(OC6OCC(O)C(O)C6OC6OC(C)C(O)C(O)C6OC6OCC(O)C(O)C6O)CCC5(C)C4CCC13C(=O)O2 [Compound 1, 3β-O-[β-D-xylopyranosyl-(1→2)-β-D-quinovopyranosyl-(1→2)-β-D-xylopyranosyl]-23,24,25,26,27-pentanor-5α-lanosta-7,20(22)-diene-18(16)-lactone]
IC50 [3, 10]: 81 ± 3.2 µM | IC50 [1, 11]: 51.2 ± 0.8 µM | IC50 [2, 12]: 27 ± 0.3 µM

CO[C@@H]1[C@@H](O)[C@H](O[C@@H]2[C@@H](O)[C@H](O[C@H]3[C@H](O)[C@@H](O)[C@H](O[C@H]4[C@H](O[C@H]5CC[C@]6(C)C7=C(CC[C@H]6C5(C)C)[C@]5(C)C[C@H](O)[C@H]([C@@](C)(O)CCC=C(C)C)[C@@]5(CO)CC7)OC[C@@H](O)[C@@H]4O)O[C@@H]3C)O[C@H](CO)[C@H]2O)OC[C@H]1O [Compound 3, (20S)-3β-O-[3-O-methyl-β-D-xylopyranosyl-(1→3)-β-D-glucopyranosyl-(1→4)-β-D-quinovopyranosyl-(1→2)-β-D-xylopyranosyl]-16β,18,20-trihydroxy-5α-lanosta-8(9),24-diene]
cytotoxic activity in words, HCT 116 [3]: Moderate | IC50 [3, 10]: 42.2 ± 0.4 µM | SI (selectivity index), HCT 116 ([3]; mean IC50 against normal cells (HEK 293)/mean IC50 against HCT 116, 24 h): 1.25 | cytotoxic activity in words, MDA-MB-231 [1]: Moderate | IC50 [1, 11]: 36.7 ± 3.3 µM | SI (selectivity index), MDA-MB-231 ([1]; mean IC50 against normal cells (HEK 293)/mean IC50 against MDA-MB-231, 24 h): 1.4 | cytotoxic activity in words, HEK 293 [2]: Moderate | IC50 [2, 12]: 52.8 ± 0.8 µM

COC1C(O)COC(OC2C(O)C(CO)OC(OC3C(C)OC(OC4C(OC5CCC6(C)C7=C(CCC6C5(C)C)C5(C)CC(OC(C)=O)C6C(C)(C=CC=C(C)C)OC(=O)C65CC7)OCC(O)C4O)C(O)C3O)C2O)C1O [Compound 6, 3β-O-[3-O-methyl-β-D-xylopyranosyl-(1→3)-β-D-glucopyranosyl-(1→4)-β-D-quinovopyranosyl-(1→2)-β-D-xylopyranosyl]-16β-acetoxyholosta-8(9),22E,24-triene]
IC50 [3, 10]: 25.5 ± 1.4 µM | IC50 [1, 11]: 29.8 ± 2.1 µM | IC50 [2, 12]: 15.3 ± 1.2 µM

CC(=O)OC1CC2(C)C3=CCC4C(C)(C)C(OC5OCC(O)C(O)C5OC5OC(C)C(O)C(O)C5OC5OCC(O)C(O)C5O)CCC4(C)C3CCC23C(=O)OC(C)(C=CC=C(C)C)C13 (centres unmarked) [Compound 7, cucumarioside B1]
IC50 ([3]; HCT-116, 24 h): 35.6 ± 0.6 µM | IC50 ([1]; Homo sapiens, MDA-MB-231, 24 h): 34 ± 2.9 µM | IC50 ([2]; Homo sapiens, HEK293, 24 h): 28.5 ± 1.5 µM

COC1C(O)COC(OC2C(O)C(CO)OC(OC3C(C)OC(OC4C(OC5CCC6(C)C7CCC89C(=O)OC(C)(C=CC=C(C)C)C8C(OC(C)=O)CC9(C)C7=CCC6C5(C)C)OCC(O)C4O)C(O)C3O)C2O)C1O (centres unmarked) [Compound 8, cucumarioside A5]
IC50 ([3]; HCT-116, 24 h): 11.4 ± 2.7 µM | IC50 ([1]; Homo sapiens, MDA-MB-231, 24 h): 13.1 ± 4.2 µM | IC50 ([2]; Homo sapiens, HEK293, 24 h): 6.2 ± 0.7 µM

CO[C@@H]1[C@@H](O)[C@H](O[C@@H]2[C@@H](O)[C@H](O[C@H]3[C@H](O)[C@@H](O[C@@H]4OC[C@@H](O)[C@H](O)[C@H]4O)[C@H](O[C@H]4[C@H](O[C@H]5CC[C@]6(C)[C@@H]7CCC89C(=O)O[C@@](C)(/C=C\C=C(C)C)[C@H]8[C@@H](OC(C)=O)C[C@@]9(C)C7=CC[C@H]6C5(C)C)OC[C@@H](O)[C@@H]4O)O[C@@H]3C)O[C@H](CO)[C@H]2O)OC[C@H]1O (some centres unmarked) [cucumarioside C1]
colony formation of RPMI-7951 cells [4]: almost completely suppress | colony formation of HT-29 cells [5]: almost completely suppress | colony formation of MDA-MB-231 cells [6]: almost completely suppress

COC1C(O)COC(OC2C(O)C(CO)OC(OC3C(C)OC(OC4C(OC5CCC6(C)C7CCC89C(=O)OC(C)(/C=C/C=C(C)C)C8C(OC(C)=O)CC9(C)C7=CCC6C5(C)C)OCC(O)C4O)C(OC4OCC(O)C(O)C4O)C3O)C2O)C1O (centres unmarked) [cucumarioside C2]
colony formation of RPMI-7951 cells [4]: almost completely suppress | colony formation of HT-29 cells [5]: almost completely suppress | colony formation of MDA-MB-231 cells [6]: almost completely suppress

COC1C(O)C(CO)OC(OC2C(O)C(CO)OC(OC3C(C)OC(OC4C(OC5CCC6(C)C7CCC89C(=O)OC(C)(C=CC=C(C)C)C8C(OC(C)=O)CC9(C)C7=CCC6C5(C)C)OCC(O)C4O)C(OC4OCC(O)C(O)C4O)C3O)C2O)C1O (centres unmarked) [cucumarioside D]
neoplastic transformation of JB6 Cl41 cells [7]: significantly inhibit | colony formation of SK-MEL-2 cancer cells [8]: highest inhibiting effect

CO[C@@H]1[C@@H](O)[C@H](O[C@@H]2[C@@H](O)[C@H](O[C@H]3[C@H](O)[C@@H](O[C@@H]4OC[C@@H](O)[C@H](O)[C@H]4O)[C@H](O[C@H]4[C@H](O[C@H]5CC[C@]6(C)[C@@H]7CCC89C(=O)O[C@@](C)(/C=C/C=C(C)C)[C@H]8[C@@H](OC(C)=O)C[C@@]9(C)C7=CC[C@H]6C5(C)C)OC[C@@H](O)[C@@H]4O)O[C@@H]3C)O[C@H](CO)[C@H]2O)O[C@H](CO)[C@H]1O (some centres unmarked) [pacificusoside D]
neoplastic transformation of JB6 Cl41 cells [7]: significantly inhibit | colony formation of SK-MEL-2 cancer cells [8]: highest inhibiting effect

pacificusoside C
colony formation of RPMI-7951 cells [4]: almost completely suppress | colony formation of HT-29 cells [5]: almost completely suppress | colony formation of MDA-MB-231 cells [6]: almost completely suppress
